Source: US9050345B2, “Pyrrolotriazines as potassium ion channel inhibitors” (BRISTOL-MYERS SQUIBB COMPANY, priority 2013, dated 2015)

These compounds were tested against T1, human KV 1.5 (IKur) (Homo sapiens, UniProt P22460) (assay: block of IKur current in patch clamped L-929 cells expressing human Kv1.5). Conditions: L929, 0.3 μM; patch clamped mammalian L-929 cells stably expressing human Kv1.5; read-out: KV1_5% Inh L929 @0.3 μM.
T1 construct: expressed in transfected cells
T1 sequence (P22460 whole entry): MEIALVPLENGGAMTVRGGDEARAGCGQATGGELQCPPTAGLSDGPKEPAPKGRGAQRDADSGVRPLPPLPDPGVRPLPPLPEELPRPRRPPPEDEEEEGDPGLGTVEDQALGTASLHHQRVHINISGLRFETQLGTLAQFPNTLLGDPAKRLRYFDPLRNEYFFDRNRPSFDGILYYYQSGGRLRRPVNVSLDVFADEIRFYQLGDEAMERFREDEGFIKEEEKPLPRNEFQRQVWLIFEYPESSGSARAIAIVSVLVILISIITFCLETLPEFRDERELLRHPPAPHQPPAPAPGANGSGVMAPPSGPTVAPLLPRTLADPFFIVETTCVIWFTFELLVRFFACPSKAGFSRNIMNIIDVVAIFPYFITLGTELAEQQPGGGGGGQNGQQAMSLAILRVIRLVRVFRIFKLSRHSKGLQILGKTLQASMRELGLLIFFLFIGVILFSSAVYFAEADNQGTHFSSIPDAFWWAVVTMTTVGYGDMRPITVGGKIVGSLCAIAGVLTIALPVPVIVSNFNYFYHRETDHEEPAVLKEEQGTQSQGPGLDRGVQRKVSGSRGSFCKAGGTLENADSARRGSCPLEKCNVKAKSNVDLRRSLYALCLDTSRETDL
Assay type: cell-based
`NS(=O)(=O)c1cccc(NC(=O)c2nc(NCc3ccccc3)c3c(-c4ccccc4)ccn3n2)c1` [Example 116, 4-(benzylamino)-5-phenyl-N-(3-sulfamoylphenyl) pyrrolo[1,2-f][1,2,4] triazine-2-carboxamide] was tested, and the inhibition at 0.3 µM was 89.4%. `NS(=O)(=O)c1ccc(CCNC(=O)c2nc(NCc3ccccc3)c3c(-c4ccccc4)ccn3n2)cc1` [Example 117, 4-(benzylamino)-5-phenyl-N-(4-sulfamoylphenethyl) pyrrolo[1,2-f][1,2,4] triazine-2-carboxamide] showed an inhibition at 0.3 µM of 86.6%. `O=C(NC1(CO)CCCC1)c1nc(NCc2ccccc2)c2c(-c3ccccc3)ccn2n1` [Example 118, 4-(benzylamino)-N-(1-(hydroxymethyl)cyclopentyl)-5-phenylpyrrolo [1,2-f][1,2,4] triazine-2-carboxamide] showed an inhibition at 0.3 µM of 45%. For `O=C(NC[C@H](O)c1ccccc1)c1nc(NCc2ccccc2)c2c(-c3ccccc3)ccn2n1` [Example 119, (R)-4-(benzylamino)-N-(2-hydroxy-2-phenylethyl)-5-phenylpyrrolo [1,2-f][1,2,4] triazine-2-carboxamide], the inhibition at 0.3 µM was 67.5%. In the case of `O=C(c1nc(NCc2ccccc2)c2c(-c3ccccc3)ccn2n1)N1CCN(c2ccc(O)cc2)CC1` [Example 120, (4-(benzylamino)-5-phenylpyrrolo [1,2-f][1,2,4]triazin-2-yl)(4-(4-hydroxyphenyl)piperazin-1-yl)methanone], the inhibition at 0.3 µM is reported as 49%. `O=C(Nc1ccc(CCO)cc1)c1nc(NCc2ccccc2)c2c(-c3ccccc3)ccn2n1` [Example 122, 4-(benzylamino)-N-(4-(2-hydroxyethyl)phenyl)-5-phenylpyrrolo [1,2-f][1,2,4] triazine-2-carboxamide] showed an inhibition at 0.3 µM of 75.8%. In the case of `O=C(Nc1ccc(-n2cncn2)cc1)c1nc(NCc2ccccc2)c2c(-c3ccccc3)ccn2n1` [Example 123, N-(4-(1H-1,2,4-triazol-1-yl)phenyl)-4-(benzylamino)-5-phenylpyrrolo [1,2-f][1,2,4] triazine-2-carboxamide], the inhibition at 0.3 µM is reported as 63.5%. Compound `O=C(Nc1ccncn1)c1nc(NCc2ccccc2)c2c(-c3ccccc3)ccn2n1` [Example 124, 4-(benzylamino)-5-phenyl-N-(pyrimidin-4-yl)pyrrolo[1,2-f][1,2,4] triazinc-2-carboxamide] has an inhibition at 0.3 µM of 86.4%. With `COc1ccc(CNC(=O)c2nc(NCc3ccccc3)c3c(-c4ccccc4)ccn3n2)c(OC)c1` [Example 125, 4-(benzylamino)-N-(2,4-dimethoxybenzyl)-5-phenylpyrrolo [1,2-f][1,2,4] triazine-2-carboxamide] the inhibition at 0.3 µM was 88.7%. Work on `c1ccc(-c2ccn3nc(-c4cc[nH]n4)nc(NCc4ccccn4)c23)cc1` [Example 126, 5-pheny 1-2-(1H-pyrazol-3-yl)-N-(pyridin-2-ylmethyl) pyrrolo[1,2-f][1,2,4] triazin-4-amine] yielded an inhibition at 0.3 µM of 98.5%. Compound `NS(=O)(=O)c1cncc(-c2nc(NCc3ccccn3)c3c(-c4ccccc4)ccn3n2)n1` [Example 127, 6-(5-phenyl-4-(pyridin-2-ylmethylamino)pyrrolo[1,2-f][1,2,4]triazin-2-yl)pyrazine-2-sulfonamide] has an inhibition at 0.3 µM of 99.3%. In the case of `c1ccc(CNc2nc(C3CCOCC3)nn3ccc(-c4ccccc4)c23)cc1` [Example 128, N-benzyl-5-phenyl-2-(tetrahydro-2H-pyran-4-yl)pyrrolo[1,2-f][1,2,4] triazin-4-amine], the inhibition at 0.3 µM is reported as 95.4%. `NS(=O)(=O)c1cncc(-c2nc(NCc3ccccc3)c3c(C4=CCOCC4)ccn3n2)c1` [Example 129, 5-(4-(benzylamino)-5-(3,6-dihydro-2H-pyran-4-yl)pyrrolo[2,1-f][1,2,4]triazin-2-yl)pyridine-3-sulfonamide] was tested, and the inhibition at 0.3 µM was 93.8%. `Nc1ncc(-c2nc(NCc3ccccn3)c3c(-c4ccccc4)ccn3n2)cc1S(N)(=O)=O` [Example 130, 2-amino-5-(5-phenyl-4-((pyridin-2-ylmethyl)amino)pyrrolo [2,1-f][1,2,4]triazin-2-yl)pyridine-3-sulfonamide] was tested, and the inhibition at 0.3 µM was 97.6%. In the case of `NS(=O)(=O)c1cncc(-c2nc(NCC3CCCCC3)c3c(-c4ccccc4)ccn3n2)c1` [Example 131, 5-(4-((cyclohexylmethyl)amino)-5-phenylpyrrolo [2,1-f][1,2,4]triazin-2-yl)pyridine-3-sulfonamide], the inhibition at 0.3 µM is reported as 83.9%. In the case of `CCOc1ncc(-c2nc(NCc3ccccn3)c3c(-c4ccccc4)ccn3n2)cc1S(N)(=O)=O` [Example 134, 2-ethoxy-5-(5-phenyl-4-((pyridin-2-ylmethyl)amino)pyrrolo [2,1-f][1,2,4]triazin-2-yl)pyridine-3-sulfonamide], the inhibition at 0.3 µM is reported as 95%. `NS(=O)(=O)c1cncc(-c2nc(NCc3ccccn3)c3c(-c4ccccc4C(F)(F)F)ccn3n2)c1` [Example 135, 5-(4-((pyridin-2-ylmethyl)amino)-5-(2-(trifluoromethyl)phenyl)pyrrolo[2,1-f][1,2,4]triazin-2-yl)pyridine-3-sulfonamide] gave an inhibition at 0.3 µM of 98.5%. Compound `NS(=O)(=O)c1cncc(-c2nc(NCc3ccccn3)c3c(-c4ccccc4Cl)ccn3n2)c1` [Example 136, 5-(5-(2-chlorophenyl)-4-((pyridin-2-ylmethyl)amino)pyrrolo [2,1-f][1,2,4]triazin-2-yl)pyridine-3-sulfonamide] has an inhibition at 0.3 µM of 98.7%. In the case of `COc1ncc(-c2nc(NCc3cnccn3)c3c(-c4ccccc4)ccn3n2)cc1S(N)(=O)=O` [Example 137, 2-methoxy-5-(5-phenyl-4-((pyrazin-2-ylmethyl)amino)pyrrolo [2,1-f][1,2,4]triazin-2-yl)pyridine-3-sulfonamide], the inhibition at 0.3 µM is reported as 82.9%. Work on `NS(=O)(=O)c1cncc(-c2nc(NCc3ncccc3F)c3c(-c4ccccc4)ccn3n2)c1` [Example 138, 5-(4-(((3-fluoropyridin-2-yl)methyl)amino)-5-phenylpyrrolo [2,1-f][1,2,4]triazin-2-yl) pyridine-3-sulfonamide] yielded an inhibition at 0.3 µM of 96.2%. `COc1cccc(CNc2nc(-c3cnc(OC)c(S(N)(=O)=O)c3)nn3ccc(-c4ccccc4)c23)n1` [Example 139, 2-methoxy-5-(4-(((6-methoxypyridin-2-yl)methyl)amino)-5-phenylpyrrolo [2,1-f][1,2,4]triazin-2-yl)pyridine-3-sulfonamide] showed an inhibition at 0.3 µM of 98.5%. `COc1cccc(CNc2nc(-c3cncc(S(N)(=O)=O)c3)nn3ccc(-c4ccccc4)c23)n1` [Example 140, 5-(4-(((6-methoxypyridin-2-yl)methyl)amino)-5-phenylpyrrolo [2,1-f][1,2,4]triazin-2-yl)pyridine-3-sulfonamide] was tested, and the inhibition at 0.3 µM was 99.1%. With `N#Cc1cccc(F)c1CNc1nc(-c2cncc(S(N)(=O)=O)c2)nn2ccc(-c3ccccc3)c12` [Example 141, 5-(4-((2-cyano-6-fluorobenzyl)amino)-5-phenylpyrrolo [2,1-f][1,2,4]triazin-2-yl)pyridine-3-sulfonamide] the inhibition at 0.3 µM was 87.7%. In the case of `NS(=O)(=O)c1cncc(-c2nc(NCc3cocn3)c3c(-c4ccccc4)ccn3n2)c1` [Example 142, 5-(4-((oxazol-4-ylmethyl)amino)-5-phenylpyrrolo [2,1-f][1,2,4]triazin-2-yl)pyridine-3-sulfonamide], the inhibition at 0.3 µM is reported as 97.2%. For `NS(=O)(=O)c1cncc(-c2nc(N3Cc4ccccc4C3)c3c(-c4ccccc4)ccn3n2)c1` [Example 143, 5-(4-(isoindolin-2-yl)-5-phenylpyrrolo [2,1-f][1,2,4]triazin-2-yl)pyridine-3-sulfonamide], the inhibition at 0.3 µM was 93.8%. `NS(=O)(=O)c1cncc(-c2nc(N3Cc4cccnc4C3)c3c(-c4ccccc4)ccn3n2)c1` [Example 144, 5-(4-(5,7-dihydro-6H-pyrrolo[3,4-b]pyridin-6-yl)-5-phenylpyrrolo [2,1-f][1,2,4]triazin-2-yl)pyridine-3-sulfonamide] gave an inhibition at 0.3 µM of 99%. `NS(=O)(=O)c1cncc(-c2nc(NCC3(O)CCCCC3)c3c(-c4ccccc4)ccn3n2)c1` [Example 145, 5-(4-((1-hydroxycyclohexyl)methylamino)-5-phenylpyrrolo [1,2-f][1,2,4]triazin-2-yl)pyridine-3-sulfonamide] was tested, and the inhibition at 0.3 µM was 62.5%. `NS(=O)(=O)c1cncc(-c2nc(NCc3ncc[nH]3)c3c(-c4ccccc4)ccn3n2)c1` [Example 146, 5-(4-((1H-imidazol-2-yl)methylamino)-5-phenylpyrrolo [1,2-f][1,2,4]triazin-2-yl)pyridine-3-sulfonamide] showed an inhibition at 0.3 µM of 78.7%. `COc1ncc(-c2nc(NCc3ccccn3)c3c(-c4ccccc4)ccn3n2)cc1S(N)(=O)=O` [Example 147, 2-methoxy-5-(5-phenyl-4-(pyridin-2-ylmethylamino)pyrrolo[1,2-f][1,2,4]triazin-2-yl)pyridine-3-sulfonamide] showed an inhibition at 0.3 µM of 97.3%. For `NS(=O)(=O)c1cncc(-c2nc(NCc3ccccn3)c3c(-c4cccnc4)ccn3n2)c1` [Example 148, 5-(4-(pyridin-2-ylmethylamino)-5-(pyridin-3-yl)pyrrolo [1,2-f][1,2,4]triazin-2-yl)pyridine-3-sulfonamide], the inhibition at 0.3 µM was 84.8%. Compound `NS(=O)(=O)c1cccc(-c2nc(NCc3ccccc3)c3c(-c4ccccc4)ccn3n2)c1` [Example 149, 3-(4-(benzylamino)-5-phenylpyrrolo[1,2-f] [1,2,4]triazin-2-yl)benzenesulfonamide] has an inhibition at 0.3 µM of 95.8%. With `NS(=O)(=O)c1cccc(-c2nc(NCc3ccccn3)c3c(-c4ccccc4)ccn3n2)c1` [Example 150, 3-(5-phenyl-4-(pyridin-2-ylmethylamino)pyrrolo [1,2-f][1,2,4]triazin-2-yl)benzenesulfonamide] the inhibition at 0.3 µM was 97.5%. `Oc1ccc(-c2nc(NCc3ccccn3)c3c(-c4ccccc4)ccn3n2)cn1` [Example 151, 5-(5-phenyl-4-((pyridin-2-ylmethyl)amino)pyrrolo [2,1-f][1,2,4]triazin-2-yl)pyridin-2-ol] was tested, and the inhibition at 0.3 µM was 94.2%. Compound `NS(=O)(=O)c1cncc(-c2nc(NCc3ncccn3)c3c(-c4ccccc4)ccn3n2)c1` [Example 152, 5-(5-phenyl-4-((pyrimidin-2-ylmethyl)amino)pyrrolo[2,1-f][1,2,4]triazin-2-yl)pyridine-3-sulfonamide] has an inhibition at 0.3 µM of 97.3%.
